Columns and labels:
Test in all cases: relative viability (nuclei count vs DMSO), 5 days (fraction); higher = more cells survive
NCI-H647 = tested on: NCI-H647
Procedure, shortened: (§1)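 Relative viability is defined as nuclei in treated wells over nuclei in vehicle wells. Duplicate plates were run and medians reported. Lung cancer cell lines in 1536-well plates were dosed by pin tool one day after seeding, with one drug or with a fixed anchor-drug dose plus five library-drug doses (not always all listed) in √10 steps, and nuclei were counted after 5 days.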

UMC-11 = tested on: UMC-11
Procedure, shortened: as §1

COR-L23 = tested on: COR-L23
Procedure, shortened: as §1

NCI-H1650 = tested on: NCI-H1650
Procedure, shortened: as §1

NCI-H322M = tested on: NCI-H322M
Procedure, shortened: as §1

NCI-H441 = tested on: NCI-H441
Procedure, shortened: as §1

EPLC-272H = tested on: EPLC-272H
Procedure, shortened: as §1

HCC-15 = tested on: HCC-15
Procedure, shortened: as §1

H3255 = tested on: H3255
Procedure, shortened: as §1

SW 900 = tested on: SW 900
Procedure, shortened: as §1

201T = tested on: 201T
Procedure, shortened: as §1

NCI-H2405 = tested on: NCI-H2405
Procedure, shortened: as §1

NCI-H1734 = tested on: NCI-H1734
Procedure, shortened: as §1

NCI-H1793 = tested on: NCI-H1793
Procedure, shortened: as §1

NCI-H2170 = tested on: NCI-H2170
Procedure, shortened: as §1

NCI-H2347 = tested on: NCI-H2347
Procedure, shortened: as §1

NCI-H2023 = tested on: NCI-H2023
Procedure, shortened: as §1

NCI-H520 = tested on: NCI-H520
Procedure, shortened: as §1

PC-14 = tested on: PC-14
Procedure, shortened: as §1

LOU-NH91 = tested on: LOU-NH91
Procedure, shortened: as §1

NCI-H3122 = tested on: NCI-H3122
Procedure, shortened: as §1

CCN(CC)CCCCNc1ncc2cc(-c3cc(OC)cc(OC)c3)c(NC(=O)NC(C)(C)C)nc2n1 + O=C(CCCCCCC(=O)Nc1ccccc1)NO [Vorinostat] (partner 1 µM)
relative viability (NCI-H647; first compound 0.01 µM): 0.525 | relative viability (NCI-H647; first compound 0.03162 µM): 0.645 | relative viability (NCI-H647; first compound 0.1 µM): 0.582 | relative viability (NCI-H647; first compound 0.3162 µM): 0.511 | relative viability (NCI-H647; first compound 1 µM): 0.491 | relative viability (UMC-11; first compound 0.01 µM): 0.4 | relative viability (UMC-11; first compound 0.03162 µM): 0.36 | relative viability (UMC-11; first compound 0.1 µM): 0.361 | relative viability (UMC-11; first compound 0.3162 µM): 0.394 | relative viability (UMC-11; first compound 1 µM): 0.311 | relative viability (COR-L23; first compound 0.01 µM): 0.467 | relative viability (COR-L23; first compound 0.03162 µM): 0.495 | relative viability (COR-L23; first compound 0.1 µM): 0.379 | relative viability (COR-L23; first compound 0.3162 µM): 0.593 | relative viability (COR-L23; first compound 1 µM): 0.434 | relative viability (NCI-H1650; first compound 0.01 µM): 0.625 | relative viability (NCI-H1650; first compound 0.03162 µM): 0.616 | relative viability (NCI-H1650; first compound 0.1 µM): 0.531 | relative viability (NCI-H1650; first compound 0.3162 µM): 0.655 | relative viability (NCI-H1650; first compound 1 µM): 0.432 | relative viability (NCI-H322M; first compound 0.01 µM): 0.787 | relative viability (NCI-H322M; first compound 0.03162 µM): 0.911 | relative viability (NCI-H322M; first compound 0.1 µM): 0.934 | relative viability (NCI-H322M; first compound 0.3162 µM): 0.966 | relative viability (NCI-H322M; first compound 1 µM): 0.872 | relative viability (NCI-H441; first compound 0.01 µM): 0.863 | relative viability (NCI-H441; first compound 0.03162 µM): 0.829 | relative viability (NCI-H441; first compound 0.1 µM): 0.811 | relative viability (NCI-H441; first compound 0.3162 µM): 0.776 | relative viability (NCI-H441; first compound 1 µM): 0.826 | relative viability (EPLC-272H; first compound 0.01 µM): 0.4 | relative viability (EPLC-272H; first compound 0.03162 µM): 0.537 | relative viability (EPLC-272H; first compound 0.1 µM): 0.277 | relative viability (EPLC-272H; first compound 0.3162 µM): 0.493 | relative viability (EPLC-272H; first compound 1 µM): 0.335 | relative viability (HCC-15; first compound 0.01 µM): 0.857 | relative viability (HCC-15; first compound 0.03162 µM): 0.849 | relative viability (HCC-15; first compound 0.1 µM): 0.867 | relative viability (HCC-15; first compound 0.3162 µM): 0.929 | relative viability (HCC-15; first compound 1 µM): 0.836 | relative viability (H3255; first compound 0.01 µM): 0.702 | relative viability (H3255; first compound 0.1 µM): 0.946 | relative viability (H3255; first compound 0.3162 µM): 1.02 | relative viability (H3255; first compound 1 µM): 0.785 | relative viability (SW 900; first compound 0.01 µM): 0.551 | relative viability (SW 900; first compound 0.03162 µM): 0.626 | relative viability (SW 900; first compound 0.1 µM): 0.44 | relative viability (SW 900; first compound 0.3162 µM): 0.412 | relative viability (SW 900; first compound 1 µM): 0.254 | relative viability (201T; first compound 0.01 µM): 1 | relative viability (201T; first compound 0.03162 µM): 1.03 | relative viability (201T; first compound 0.1 µM): 0.973 | relative viability (201T; first compound 0.3162 µM): 0.981 | relative viability (201T; first compound 1 µM): 0.887 | relative viability (NCI-H2405; first compound 0.01 µM): 0.795 | relative viability (NCI-H2405; first compound 0.03162 µM): 1.03 | relative viability (NCI-H2405; first compound 0.1 µM): 1.08 | relative viability (NCI-H2405; first compound 0.3162 µM): 1.22 | relative viability (NCI-H2405; first compound 1 µM): 0.94 | relative viability (NCI-H1734; first compound 0.01 µM): 0.849 | relative viability (NCI-H1734; first compound 0.03162 µM): 0.874 | relative viability (NCI-H1734; first compound 0.1 µM): 0.974 | relative viability (NCI-H1734; first compound 0.3162 µM): 0.864 | relative viability (NCI-H1734; first compound 1 µM): 0.757 | relative viability (NCI-H1793; first compound 0.01 µM): 0.724 | relative viability (NCI-H1793; first compound 0.03162 µM): 0.707 | relative viability (NCI-H1793; first compound 0.1 µM): 0.898 | relative viability (NCI-H1793; first compound 0.3162 µM): 0.816 | relative viability (NCI-H1793; first compound 1 µM): 0.599 | relative viability (NCI-H2170; first compound 0.01 µM): 0.782 | relative viability (NCI-H2170; first compound 0.03162 µM): 0.92 | relative viability (NCI-H2170; first compound 0.1 µM): 0.983 | relative viability (NCI-H2170; first compound 0.3162 µM): 0.969 | relative viability (NCI-H2170; first compound 1 µM): 0.776 | relative viability (NCI-H2347; first compound 0.01 µM): 0.509 | relative viability (NCI-H2347; first compound 0.03162 µM): 0.543 | relative viability (NCI-H2347; first compound 0.1 µM): 0.705 | relative viability (NCI-H2347; first compound 0.3162 µM): 0.588 | relative viability (NCI-H2347; first compound 1 µM): 0.472 | relative viability (NCI-H2023; first compound 0.01 µM): 0.534 | relative viability (NCI-H2023; first compound 0.03162 µM): 0.756 | relative viability (NCI-H2023; first compound 0.1 µM): 0.686 | relative viability (NCI-H2023; first compound 0.3162 µM): 0.6 | relative viability (NCI-H2023; first compound 1 µM): 0.567 | relative viability (NCI-H520; first compound 0.01 µM): 0.783 | relative viability (NCI-H520; first compound 0.03162 µM): 0.731 | relative viability (NCI-H520; first compound 0.1 µM): 0.673 | relative viability (NCI-H520; first compound 0.3162 µM): 0.633 | relative viability (NCI-H520; first compound 1 µM): 0.273 | relative viability (PC-14; first compound 0.01 µM): 0.708 | relative viability (PC-14; first compound 0.03162 µM): 0.84 | relative viability (PC-14; first compound 0.1 µM): 0.969 | relative viability (PC-14; first compound 0.3162 µM): 0.881 | relative viability (PC-14; first compound 1 µM): 0.622 | relative viability (LOU-NH91; first compound 0.01 µM): 0.868 | relative viability (LOU-NH91; first compound 0.03162 µM): 0.99 | relative viability (LOU-NH91; first compound 0.1 µM): 1.04 | relative viability (LOU-NH91; first compound 0.3162 µM): 1.08 | relative viability (LOU-NH91; first compound 1 µM): 0.901 | relative viability (NCI-H3122; first compound 0.01 µM): 0.983 | relative viability (NCI-H3122; first compound 0.03162 µM): 1.06 | relative viability (NCI-H3122; first compound 0.1 µM): 1.09 | relative viability (NCI-H3122; first compound 0.3162 µM): 0.996 | relative viability (NCI-H3122; first compound 1 µM): 1.14

— the supplement of paper PMC10307832
